Measured values as given in patent publication US9023844B2, “Heterocyclylpyri (mi) dinylpyrazole as fungicidals” (Bayer Intellectual Property GmbH, priority 2011, dated 2015).

Assay: Determination of log P values by HPLC on a reverse phase column (C18), EEC-Directive 79/831 Annex V.A8 (Methods A, B, C)
Format: physicochemical
Details: Method B (HPLC, reverse phase C18)
Experimental: (§1) Note on the determination of the log P values and mass detection: The stated log P values were determined in accordance with EEC-Directive 79/831 Annex V.A8 by HPLC (High Performance Liquid Chromatography) on a reverse phase column (C18). Agilent 1100 LC system; 50*4.6 Zorbax Eclipse Plus C18 1.8 micron; eluent A: acetonitrile (0.1% formic acid); eluent B: water (0.09% formic acid); linear gradient from 10% acetonitrile to 95% acetonitrile in 4.25 mins, then 95% acetonitrile for a further 1.25 mins; oven temperature 55° C.; flow rate: 2.0 mL/min. The mass detection was effected with an Agilend MSD system.
as §1, with “HP1100;” for “Agilent 1100 LC system;”, “(0.08%” for “(0.09%”, “5%” for “10%”, “1.70 min,” for “4.25 mins,”, “1.00 min;” for “1.25 mins;”, “the Micronass ZQ2000 mass detector from Waters.” for “an Agilend MSD system.”
Note on the determination of the log P values and mass detection: The stated log P values were determined in accordance with EEC-Directive 79/831 Annex V.A8 by UPLC (Ultra Performance Liquid Chromatography) on a reverse phase column (C18). HP1100; 50*2.1 Zorbax Eclipse Plus C18 1.8 micron; eluent A: acetonitrile (0.09% formic acid); eluent B: water (0.1% formic acid); linear gradient from 10% A to 95% A in 3.25 min; oven temperature 40° C.; flow rate: 0.8 mL/min. The mass detection was effected with the LCT Premier or SQD mass detector from Waters.

| Structure (SMILES) | LogP |
| --- | --- |
| O=C(Nc1cc(-c2c(-c3ccc(F)cc3F)nn3c2OCCC3)ccn1)C1(Cl)CC1 [Example 50] | 2.84 |
| CCCC(CCC)C(=O)Nc1cc(-c2c(-c3ccc(F)cc3)nn3c2OCCC3)ccn1 [Example 67] | 2.64 |
| O=C(Nc1cc(-c2c(-c3ccc(F)cc3)nn3c2OCCC3)ccn1)c1c(F)cccc1F [Example 71] | 2.43 |
| CC1(C(=O)Nc2cc(-c3c(-c4ccc(F)cc4)nn4c3OCCC4)ccn2)CC1 [Example 98] | 1.79 |
| CC(=O)CCCC(=O)Nc1cc(-c2c(-c3ccc(F)cc3)nn3c2OCCC3)ccn1 [Example 99] | 1.35 |
| O=C1CCC(C(=O)Nc2cc(-c3c(-c4ccc(F)cc4)nn4c3OCCC4)ccn2)C1 (stereo not shown) [Example 112] | 1.38 |
| O=C(Nc1cc(-c2c(-c3ccc(F)cc3)nn3c2OCCC3)ccn1)c1cncc(F)c1 [Example 114] | 1.96 |
| CC(C)(F)C(=O)Nc1cc(-c2c(-c3ccc(F)cc3)nn3c2OCCC3)ccn1 [Example 115] | 2.38 |
| O=C(Nc1cc(-c2c(-c3ccc(F)cc3)nn3c2OCCC3)ccn1)C1CC1(F)Cl (stereo not shown) [Example 116] | 2.13 |
| CC1(C(=O)Nc2cc(-c3c(-c4ccc(F)cc4)nn4c3OCCC4)ccn2)CCCC1 [Example 117] | 2.23 |
| CC1(C(=O)Nc2cc(-c3c(-c4ccc(F)cc4)nn4c3OCCC4)ccn2)COCOC1 [Example 118] | 1.86 |
| CCC1(C(=O)Nc2cc(-c3c(-c4ccc(F)cc4)nn4c3OCCC4)ccn2)COC1 [Example 119] | 1.56 |
| N#CC1(C(=O)Nc2cc(-c3c(-c4ccc(F)cc4)nn4c3OCCC4)ccn2)CC1 [Example 120] | 2.13 |
| CC1(C(=O)Nc2cc(-c3c(-c4ccc(F)cc4)nn4c3OCCC4)ccn2)CC=CCC1 (stereo not shown) [Example 121] | 2.38 |
| CC(C)=NOCC(=O)Nc1cc(-c2c(-c3ccc(F)cc3)nn3c2OCCC3)ccn1 [Example 122] | 2.13 |
| O=C(Cn1cccn1)Nc1cc(-c2c(-c3ccc(F)cc3)nn3c2OCCC3)ccn1 [Example 123] | 1.63 |

| Structure (SMILES) | LogP |
| --- | --- |
| O=C(CC1CCCOC1)Nc1cc(-c2c(-c3ccc(F)cc3)nn3c2OCCC3)ccn1 (stereo not shown) [Example 124] | 1.57 |
| O=C(Nc1cc(-c2c(-c3ccc(F)cc3)nn3c2OCCC3)ccn1)C1CC=CC1 [Example 125] | 1.76 |
| Cc1occc1C(=O)Nc1cc(-c2c(-c3ccc(F)cc3)nn3c2OCCC3)ccn1 [Example 126] | 1.96 |
| CCC(C)CC(C)C(=O)Nc1cc(-c2c(-c3ccc(F)cc3)nn3c2OCCC3)ccn1 (stereo not shown) [Example 127] | 2.65 |
| O=C(Nc1cc(-c2c(-c3ccc(F)cc3)nn3c2OCCC3)ccn1)C1CCSCC1 [Example 128] | 1.83 |
| O=C(Nc1cc(-c2c(-c3ccc(F)cc3)nn3c2OCCC3)ccn1)C1(C2CC2)CC1 [Example 129] | 2.46 |
| O=C(Nc1cc(-c2c(-c3ccc(F)cc3)nn3c2OCCC3)ccn1)c1ccc(F)s1 [Example 130] | 2.42 |
| CC[C@H](C)CC(=O)Nc1cc(-c2c(-c3ccc(F)cc3)nn3c2OCCC3)ccn1 [Example 131] | 2.1 |
| O=C(CCn1ccnn1)Nc1cc(-c2c(-c3ccc(F)cc3)nn3c2OCCC3)ccn1 [Example 133] | 1.23 |
| Cc1cc(C(=O)Nc2cc(-c3c(-c4ccc(F)cc4)nn4c3OCCC4)ccn2)no1 [Example 134] | 2.53 |
| Cc1noc(C)c1C(=O)Nc1cc(-c2c(-c3ccc(F)cc3)nn3c2OCCC3)ccn1 [Example 135] | 2.06 |
| CC(C)=NOC(C)C(=O)Nc1cc(-c2c(-c3ccc(F)cc3)nn3c2OCCC3)ccn1 (stereo not shown) [Example 136] | 2.34 |
| O=C(Cn1cncn1)Nc1cc(-c2c(-c3ccc(F)cc3)nn3c2OCCC3)ccn1 [Example 137] | 1.32 |
| CC(C)[C@H](NC=O)C(=O)Nc1cc(-c2c(-c3ccc(F)cc3)nn3c2OCCC3)ccn1 [Example 138] | 1.6 |
| O=C(CC1=CCCCC1)Nc1cc(-c2c(-c3ccc(F)cc3)nn3c2OCCC3)ccn1 [Example 139] | 2.46 |

Same assay, conditions: Method C (HPLC, reverse phase C18)

| Structure (SMILES) | LogP |
| --- | --- |
| CCC(=O)Nc1cc(-c2c(-c3ccccc3)nn3c2N(C(=O)CC)CCC3)ccn1 [Example 78] | 1.45 |
| C[Si]1(C)COc2c(-c3ccnc(NC(=O)C4CC4)c3)c(-c3cccs3)nn2C1 [Example 87] | 2.08 |
| CCC(=O)N1CCCn2nc(-c3ccc(F)cc3)c(-c3ccnc(N(C(C)=O)C(=O)CC)c3)c21 [Example 90] | 2.39 |
| CCC(=O)Nc1cc(-c2c(-c3ccc(F)cc3)nn3c2N(C(=O)CC)CCC3)ccn1 [Example 91] | 1.62 |
| CCC(=O)N(C)c1cc(-c2c(-c3ccc(F)cc3)nn3c2N(C(=O)CC)CCC3)ccn1 [Example 93] | 2.05 |
| CC(=O)Nc1cc(-c2c(-c3ccc(F)cc3)nn3c2N(C(C)=O)CCC3)ccn1 [Example 94] | 1.26 |
| CCN1CCCn2nc(-c3ccc(F)cc3)c(-c3ccnc(NCc4ccccc4)c3)c21 [Example 97] | 1.86 |
| CC(C)C(=O)Nc1cc(-c2c(-c3ccc(F)cc3)nn3c2OCC(C)(C#N)C3)ccn1 (stereo not shown) [Example 107] | 1.94 |
| CC1(C)COc2c(-c3ccnc(NC(=O)C4CC4)c3)c(-c3ccc(F)cc3)nn2C1 [Example 108] | 2.08 |
| CC(=O)Nc1cc(-c2c(-c3ccc(F)cc3)nn3c2OCC(C)(C)C3)ccn1 [Example 109] | 1.75 |
| CCC(=O)Nc1cc(-c2c(-c3ccc(F)cc3)nn3c2OCC(C)(C)C3)ccn1 [Example 110] | 2.00 |
| CC(C)C(=O)Nc1cc(-c2c(-c3ccc(F)cc3)nn3c2OCC(C)(C)C3)ccn1 [Example 111] | 2.23 |

Same assay, conditions: reverse phase C18 HPLC column, Method B (HPLC, reverse phase C18); read-out: LogP

| Structure (SMILES) | chromatographic logP |
| --- | --- |
| CC(F)C(=O)Nc1cc(-c2c(-c3ccc(F)cc3)nn3c2OCCC3)ccn1 (stereo not shown) [Example 113, 2-fluoro-N-{4-[2-(4-fluorophenyl)-6,7-dihydro-5H-pyrazolo[5,1-b][1,3]oxazin-3-yl]pyridin-2-yl}propanamide] | 2 |

Same assay, conditions: reverse phase C18 HPLC column, Method C (HPLC, reverse phase C18); read-out: LogP

| Structure (SMILES) | chromatographic logP |
| --- | --- |
| CC(=O)N1CCCn2nc(-c3ccccc3)c(-c3ccnc(N(C(C)=O)C(C)=O)c3)c21 [Example 58, N-acetyl-N-[4-(4-acetyl-2-phenyl-4,5,6,7-tetrahydropyrazolo[1,5-a]pyrimidin-3-yl)pyridin-2-yl]acetamide] | 1.72 |
| CC(=O)Nc1cc(-c2c(-c3ccc(F)cc3)nn3cccnc23)ccn1 [Example 60, N-{4-[2-(4-Fluorophenyl)pyrazolo[1,5-a]pyrimidin-3-yl]pyridin-2-yl}acetamide] | 1.47 |

Same assay, conditions: reverse phase C18 HPLC column, pH 2.3, intermediates of formula [II]; HPLC, reverse phase C18; read-out: LogP (pH 2.3)

| Structure (SMILES) | chromatographic logP |
| --- | --- |
| Nc1cc(-c2c(-c3ccccc3)nn3c2OCCC3)ccn1 [[II-1], 4-(2-phenyl-6,7-dihydro-5H-pyrazolo[5,1-b][1,3]oxazin-3-yl)pyridin-2-amine] | 0.87 |
| Nc1cc(-c2c(-c3ccc(F)cc3)nn3c2OCCC3)ccn1 [[II-2], 4-[2-(4-fluorophenyl)-6,7-dihydro-5H-pyrazolo[5,1-b][1,3]oxazin-3-yl]pyridin-2-amine] | 0.95 |
| Nc1cc(-c2c(-c3ccc(F)cc3F)nn3c2OCCC3)ccn1 [[II-3], 4-[2-(2,4-difluorophenyl)-6,7-dihydro-5H-pyrazolo[5,1-b][1,3]oxazin-3-yl]pyridin-2-amine] | 1.01 |
| C[Si]1(C)COc2c(-c3ccnc(N)c3)c(-c3ccc(F)cc3)nn2C1 [[II-4], 4-[7-(4-fluorophenyl)-3,3-dimethyl-3,4-dihydro-2H-pyrazolo[5,1-b][1,3,5]oxazasilin-8-yl]pyridin-2-amine] | 1.66 |

Same assay, conditions: reverse phase C18 HPLC column, pH 2.3, intermediates of formula [IV] and [XXXVII]; HPLC, reverse phase C18; read-out: LogP (pH 2.3)

| Structure (SMILES) | chromatographic logP |
| --- | --- |
| C[C@@H]1C[C@@H](C)n2nc(-c3ccc(F)cc3)c(Br)c2O1 (racemic) [[IV-9a], rac-trans-3-bromo-2-(4-fluorophenyl)-5,7-dimethyl-6,7-dihydro-5H-pyrazolo[5,1-b][1,3]oxazine] | 3.91 |
| C[C@@H]1C[C@H](C)n2nc(-c3ccc(F)cc3)c(Br)c2O1 (racemic) [[IV-9b], rac-cis-3-bromo-2-(4-fluorophenyl)-5,7-dimethyl-6,7-dihydro-5H-pyrazolo[5,1-b][1,3]oxazine] | 3.68 |

Same assay, conditions: reverse phase C18 HPLC column, pH 2.7, values in the synthesis examples; HPLC, reverse phase C18; read-out: log P (pH 2.7)

| Structure (SMILES) | chromatographic logP |
| --- | --- |
| C[C@@H]1C[C@@H](C)n2nc(-c3ccc(F)cc3)c(Br)c2O1 (racemic) [[IV-9a], rac-trans-3-bromo-2-(4-fluorophenyl)-5,7-dimethyl-6,7-dihydro-5H-pyrazolo[5,1-b][1,3]oxazine] | 3.91 |
| C[C@@H]1C[C@H](C)n2nc(-c3ccc(F)cc3)c(Br)c2O1 (racemic) [[IV-9b], rac-cis-3-bromo-2-(4-fluorophenyl)-5,7-dimethyl-6,7-dihydro-5H-pyrazolo[5,1-b][1,3]oxazine] | 3.68 |
| CC(=O)N1CCCn2nc(-c3ccccc3)c(-c3ccnc(N(C(C)=O)C(C)=O)c3)c21 [Example 58, N-acetyl-N-[4-(4-acetyl-2-phenyl-4,5,6,7-tetrahydropyrazolo[1,5-a]pyrimidin-3-yl)pyridin-2-yl]acetamide] | 1.72 |
| CC(=O)Nc1cc(-c2c(-c3ccc(F)cc3)nn3cccnc23)ccn1 [Example 60, N-{4-[2-(4-Fluorophenyl)pyrazolo[1,5-a]pyrimidin-3-yl]pyridin-2-yl}acetamide] | 1.47 |
| CC(F)C(=O)Nc1cc(-c2c(-c3ccc(F)cc3)nn3c2OCCC3)ccn1 (stereo not shown) [Example 113, 2-fluoro-N-{4-[2-(4-fluorophenyl)-6,7-dihydro-5H-pyrazolo[5,1-b][1,3]oxazin-3-yl]pyridin-2-yl}propanamide] | 2 |
| CC(C)(C)OC(=O)Nc1cc(-c2c(-c3ccccc3)nn3cccnc23)ccn1 [[I-i-2], tert-butyl [4-(2-phenylpyrazolo[1,5-a]pyrimidin-3-yl)pyridin-2-yl]carbamate] | 2.32 |
| Nc1cc(-c2c(-c3ccccc3)nn3c2OCCC3)ccn1 [[II-1], 4-(2-phenyl-6,7-dihydro-5H-pyrazolo[5,1-b][1,3]oxazin-3-yl)pyridin-2-amine] | 0.87 |
| Nc1cc(-c2c(-c3ccc(F)cc3)nn3c2OCCC3)ccn1 [[II-2], 4-[2-(4-fluorophenyl)-6,7-dihydro-5H-pyrazolo[5,1-b][1,3]oxazin-3-yl]pyridin-2-amine] | 0.95 |
| Nc1cc(-c2c(-c3ccc(F)cc3F)nn3c2OCCC3)ccn1 [[II-3], 4-[2-(2,4-difluorophenyl)-6,7-dihydro-5H-pyrazolo[5,1-b][1,3]oxazin-3-yl]pyridin-2-amine] | 1.01 |
